A word on the IC50: it is the point on the concentration scale where inhibition reaches its midpoint.

The first data set deals with T1, Xanthine dehydrogenase/oxidase (Bos taurus, UniProt P80457). As to the kind of experiment: Mixed-type inhibition of bovine xanthine oxidase by Lineweaver-Burk plot method. The note with it: cattle.
T1 sequence (P80457 whole entry): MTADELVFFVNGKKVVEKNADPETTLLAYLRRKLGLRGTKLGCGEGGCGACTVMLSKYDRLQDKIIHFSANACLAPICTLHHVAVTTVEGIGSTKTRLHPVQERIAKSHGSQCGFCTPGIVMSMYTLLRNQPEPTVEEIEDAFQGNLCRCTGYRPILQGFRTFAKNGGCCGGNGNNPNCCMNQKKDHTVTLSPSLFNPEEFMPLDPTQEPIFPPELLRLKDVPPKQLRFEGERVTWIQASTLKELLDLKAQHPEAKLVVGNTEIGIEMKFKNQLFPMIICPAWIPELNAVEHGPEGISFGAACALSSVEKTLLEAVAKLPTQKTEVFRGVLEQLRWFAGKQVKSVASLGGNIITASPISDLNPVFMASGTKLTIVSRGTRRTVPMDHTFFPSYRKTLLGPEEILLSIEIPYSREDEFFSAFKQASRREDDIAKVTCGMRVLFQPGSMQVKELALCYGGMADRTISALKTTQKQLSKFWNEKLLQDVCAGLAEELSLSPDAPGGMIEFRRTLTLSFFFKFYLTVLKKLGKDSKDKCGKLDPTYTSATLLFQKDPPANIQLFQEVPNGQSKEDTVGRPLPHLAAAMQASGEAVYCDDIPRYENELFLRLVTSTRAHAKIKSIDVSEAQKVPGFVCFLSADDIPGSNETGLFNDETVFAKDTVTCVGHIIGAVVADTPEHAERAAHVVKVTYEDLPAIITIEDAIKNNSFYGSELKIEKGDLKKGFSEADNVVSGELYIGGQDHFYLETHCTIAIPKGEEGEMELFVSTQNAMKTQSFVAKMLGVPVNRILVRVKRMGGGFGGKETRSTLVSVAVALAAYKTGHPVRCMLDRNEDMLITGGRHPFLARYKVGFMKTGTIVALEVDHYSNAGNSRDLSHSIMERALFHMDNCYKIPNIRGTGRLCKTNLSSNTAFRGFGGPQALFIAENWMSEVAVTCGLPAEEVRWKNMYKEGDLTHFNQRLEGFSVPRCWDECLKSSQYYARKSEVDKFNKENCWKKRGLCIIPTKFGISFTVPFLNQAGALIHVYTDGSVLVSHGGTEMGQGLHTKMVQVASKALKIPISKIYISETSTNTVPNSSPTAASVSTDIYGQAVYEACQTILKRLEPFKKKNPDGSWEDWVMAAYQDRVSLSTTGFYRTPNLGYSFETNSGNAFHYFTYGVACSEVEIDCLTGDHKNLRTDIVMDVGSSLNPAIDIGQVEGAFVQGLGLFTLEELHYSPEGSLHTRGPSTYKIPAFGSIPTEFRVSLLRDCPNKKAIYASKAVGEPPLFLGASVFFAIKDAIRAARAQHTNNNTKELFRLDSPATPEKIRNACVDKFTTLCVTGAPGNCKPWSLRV
Turning to `COc1cccc(COc2ccc(-n3cc(C(=O)O)nn3)cc2C#N)c1`, the “inhibition (INH)” value is listed as “Active”.

A further data set deals with T1, Xanthine dehydrogenase/oxidase. In words: Potency index, ratio of allopurinol IC50 to compound IC50 for bovine xanthine oxidase. The note with it: cattle.
With `COc1cccc(COc2ccc(-n3cc(C(=O)O)nn3)cc2C#N)c1`, the “Ratio IC50” value stood at 36.

For another data set the target is unchanged. As to the kind of experiment: Inhibition of bovine xanthine oxidase assessed as reduction in uric acid production using xanthine as substrate preincubated for 10 mins followed by substrate addition by spectrophotometric analysis.
Conditions: not given; call rule not given here
Consider `CC(C)COc1ccc(-n2cc(C(=O)O)nn2)cc1C#N`, for which the half-maximal inhibitory concentration (IC50) worked out at 3.27 µM. Still for that read-out and setting: for `CCC(C)Oc1ccc(-n2cc(C(=O)O)nn2)cc1C#N` (stereo unspecified) the value was 3.96 µM; for `N#Cc1cc(-n2cc(C(=O)O)nn2)ccc1OC1CCCC1`, 1.08 µM. On to `CCCCCOc1ccc(-n2cc(C(=O)O)nn2)cc1C#N`, for which the IC50 worked out at 2.85 µM. `CCCOc1ccc(-n2cc(C(=O)O)nn2)cc1C#N`: the IC50 is more than 30 µM.

On to `N#Cc1ccc(COc2ccc(-n3cc(C(=O)O)nn3)cc2C#N)cc1`, for which the IC50 worked out at 0.85 µM.

Take `CC(C)CCOc1ccc(-n2cc(C(=O)O)nn2)cc1C#N`: the IC50 is 1.62 µM. Consider `CCCCCCCOc1ccc(-n2cc(C(=O)O)nn2)cc1C#N`, for which the half-maximal inhibitory concentration (IC50) is 1.47 µM.

Take `N#Cc1cc(-n2cc(C(=O)O)nn2)ccc1OCc1ccc(Cl)cc1`: the IC50 amounted to 0.94 µM. Turning to `COCCOc1ccc(-n2cc(C(=O)O)nn2)cc1C#N`, the IC50 turned out to be 26.1 µM. Same read-out and setting: for `COc1ccccc1COc1ccc(-n2cc(C(=O)O)nn2)cc1C#N` the value was 0.76 µM.

`COc1cccc(COc2ccc(-n3cc(C(=O)O)nn3)cc2C#N)c1`: the half-maximal inhibitory concentration (IC50) was determined as 0.21 µM.

`CCCCOc1ccc(-n2cc(C(=O)O)nn2)cc1C#N`: the half-inhibitory concentration (IC50) was 5.03 µM. The same measure, in the same setting: the same measure for `CC(C)Oc1ccc(-n2cc(C(=O)O)nn2)cc1C#N`: 6.24 µM; for `N#Cc1cc(-n2cc(C(=O)O)nn2)ccc1OCc1ccccc1`: 2.4 µM; for `CCCCCCOc1ccc(-n2cc(C(=O)O)nn2)cc1C#N`: 1.5 µM. On to `COc1ccc(COc2ccc(-n3cc(C(=O)O)nn3)cc2C#N)cc1`, for which the 50% inhibitory concentration (IC50) was 0.72 µM. The same measure, in the same setting: for `CCCCCCCCOc1ccc(-n2cc(C(=O)O)nn2)cc1C#N` the value was 0.63 µM. Still for that read-out and setting: the same measure for `N#Cc1cccc(COc2ccc(-n3cc(C(=O)O)nn3)cc2C#N)c1`: 3.35 µM.

Source of the values: ChEMBL document CHEMBL4052752, “Synthesis and evaluation of 1-phenyl-1H-1,2,3-triazole-4-carboxylic acid derivatives as xanthine oxidase inhibitors” (Bioorg Med Chem Lett, 2017).
